Reference: publication doi:10.1101/530550v1 (biorxiv, 2019)

Tested on: 2,5DHP dioxygenase (PicD)
Assay: spectrophotometric […],5DHP disappearance at […] nm
Assay type: biochemical, Alcaligenes faecalis
Settings: 1 mM Fe2+; 50 mM PBS pH 7.0; 25 °C

Km: 65.7 ± 6.27 µM
SMILES: Oc1ccc(O)nc1 [2,5DHP, 2,5-dihydroxypyridine]
